Measured values as given in patent US20220144847A1, “HETEROCYCLIC COMPOUND, PHARMACEUTICAL COMPOSITION COMPRISING SAME, PREPARATION METHOD THEREFOR, AND USE THEREOF” (Sichuan Kelun-Biotech Biopharmaceutical Co., Ltd., priority 2019, published 2022).
Like-named read-outs stand apart in the source and are kept apart here.

How the values were obtained:
[1] = target: VEGFR2 (Homo sapiens, UniProt P35968); assay: VEGFR2 inhibition experiment (HTRF KinEASE-TK kit); format: biochemical; conditions: read-out: Inhibition rate on VEGFR2; for inhibition at 0.3 µM: 300 nM; for inhibition at 0.03 µM: 30 nM
Sequence of VEGFR2 (P35968 20-1356, species assumed): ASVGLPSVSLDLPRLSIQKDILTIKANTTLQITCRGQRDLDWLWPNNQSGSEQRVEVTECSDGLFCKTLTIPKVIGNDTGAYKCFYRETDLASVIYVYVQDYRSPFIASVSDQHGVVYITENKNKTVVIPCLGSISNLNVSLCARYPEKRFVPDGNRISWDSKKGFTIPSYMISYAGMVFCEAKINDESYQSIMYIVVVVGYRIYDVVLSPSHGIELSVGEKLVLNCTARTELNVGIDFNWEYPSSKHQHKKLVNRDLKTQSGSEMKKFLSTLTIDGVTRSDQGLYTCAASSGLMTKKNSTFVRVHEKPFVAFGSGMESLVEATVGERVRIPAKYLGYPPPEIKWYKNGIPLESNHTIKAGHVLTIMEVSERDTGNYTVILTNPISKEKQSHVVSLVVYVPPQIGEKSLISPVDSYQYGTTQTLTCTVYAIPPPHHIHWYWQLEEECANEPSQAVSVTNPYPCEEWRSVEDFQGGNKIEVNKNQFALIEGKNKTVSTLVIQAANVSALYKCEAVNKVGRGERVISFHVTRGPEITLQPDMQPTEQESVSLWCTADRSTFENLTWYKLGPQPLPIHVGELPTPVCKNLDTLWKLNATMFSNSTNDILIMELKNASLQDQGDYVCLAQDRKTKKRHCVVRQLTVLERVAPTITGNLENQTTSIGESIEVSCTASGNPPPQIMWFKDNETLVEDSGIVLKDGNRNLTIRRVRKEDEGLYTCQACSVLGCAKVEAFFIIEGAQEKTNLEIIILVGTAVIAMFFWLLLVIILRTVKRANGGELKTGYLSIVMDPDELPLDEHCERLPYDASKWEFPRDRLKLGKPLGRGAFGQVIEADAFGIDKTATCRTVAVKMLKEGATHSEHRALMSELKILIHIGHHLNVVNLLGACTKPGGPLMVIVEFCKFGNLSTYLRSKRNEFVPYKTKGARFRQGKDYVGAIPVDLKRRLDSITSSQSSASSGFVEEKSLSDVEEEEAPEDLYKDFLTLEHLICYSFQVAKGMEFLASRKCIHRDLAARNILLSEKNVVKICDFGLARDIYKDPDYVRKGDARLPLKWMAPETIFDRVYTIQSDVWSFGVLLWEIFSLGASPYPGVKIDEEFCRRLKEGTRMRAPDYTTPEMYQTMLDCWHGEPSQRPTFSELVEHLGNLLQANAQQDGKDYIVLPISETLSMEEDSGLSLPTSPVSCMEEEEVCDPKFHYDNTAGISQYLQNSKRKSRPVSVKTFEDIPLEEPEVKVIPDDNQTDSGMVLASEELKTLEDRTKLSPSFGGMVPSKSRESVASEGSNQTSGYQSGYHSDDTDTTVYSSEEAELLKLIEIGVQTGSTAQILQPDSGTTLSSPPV
Description: Experimental method: According to the instructions of the HTRF KinEASE-TK kit (Cisbio), the compounds of the present disclosure were tested for their inhibitory effects on the VEGFR2 enzyme activity. After pre-incubation of the VEGFR2 enzyme and different concentrations of test compounds at room temperature for 30 min, a substrate and adenosine triphosphate (ATP) were added to initiate the reaction. After incubation at room temperature for 40 min, TK antibody-cryptate and streptavidin-XL665 were added, and the test was performed after incubation at room temperature for 45 min. With the solvent group (DMSO) as the negative control and the buffer group (without VEGFR2 enzyme) as the blank control, the relative inhibitory activity percentages (i.e., inhibition rates) of different concentrations of the compounds were computed as per the following formula:
(§1) Relative inhibitory activity percentage=1−(compound group of different concentrations−blank control)/(negative control−blank control)*100%
(§2) The relative inhibitory activity percentages of different concentrations of the compounds were plotted with respect to the compound concentrations, and the curve was fitted according to a four-parameter model to compute the IC50 value as per the following formula:
(§3) y=min+(max−min)/(1+(x/IC50)^(−Hillslope))
(§4) where y is the relative inhibitory activity percentage, max is the maximum value of the fitted curve, min is the minimum value of the fitted curve, x is the logarithmic concentration of the compound, and Hillslope is the slope of the curve.

[2] = target: RET-V804M (Homo sapiens, UniProt P07949, V804M); assay: RET inhibition experiment (HTRF KinEASE-TK kit), mutant RET-V804M; format: biochemical; conditions: for IC50: read-out: The IC50 (nM) for inhibiting V804M
Sequence of RET-V804M (P07949 29-1114 V804M): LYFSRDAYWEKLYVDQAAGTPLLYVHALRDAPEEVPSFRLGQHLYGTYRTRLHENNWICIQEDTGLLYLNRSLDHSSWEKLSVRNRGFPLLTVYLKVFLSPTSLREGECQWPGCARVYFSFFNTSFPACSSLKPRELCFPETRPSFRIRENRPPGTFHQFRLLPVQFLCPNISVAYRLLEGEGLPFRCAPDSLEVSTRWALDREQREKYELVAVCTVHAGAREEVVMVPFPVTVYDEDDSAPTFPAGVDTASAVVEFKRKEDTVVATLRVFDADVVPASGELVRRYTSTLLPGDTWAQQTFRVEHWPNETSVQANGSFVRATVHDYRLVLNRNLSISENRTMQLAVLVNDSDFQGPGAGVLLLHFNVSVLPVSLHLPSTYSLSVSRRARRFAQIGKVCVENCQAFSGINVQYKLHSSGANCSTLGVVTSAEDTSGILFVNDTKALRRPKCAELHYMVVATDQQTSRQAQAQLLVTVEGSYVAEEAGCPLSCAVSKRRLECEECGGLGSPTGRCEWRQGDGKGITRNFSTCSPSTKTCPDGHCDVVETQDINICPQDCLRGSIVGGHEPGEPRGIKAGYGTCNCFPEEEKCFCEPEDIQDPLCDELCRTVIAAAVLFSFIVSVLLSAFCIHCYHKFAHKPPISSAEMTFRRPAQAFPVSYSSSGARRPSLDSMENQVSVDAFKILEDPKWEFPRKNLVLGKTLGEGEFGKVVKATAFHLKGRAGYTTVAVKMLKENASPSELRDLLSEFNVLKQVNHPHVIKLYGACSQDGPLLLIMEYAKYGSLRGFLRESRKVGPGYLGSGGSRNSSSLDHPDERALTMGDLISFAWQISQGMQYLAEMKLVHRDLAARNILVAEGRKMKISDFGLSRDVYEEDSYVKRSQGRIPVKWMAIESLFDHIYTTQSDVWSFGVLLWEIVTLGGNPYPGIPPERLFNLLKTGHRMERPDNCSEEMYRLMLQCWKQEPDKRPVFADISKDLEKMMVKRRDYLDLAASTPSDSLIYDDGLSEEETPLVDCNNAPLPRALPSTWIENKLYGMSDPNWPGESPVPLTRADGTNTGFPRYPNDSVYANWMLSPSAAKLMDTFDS
Description: Experimental method: According to the instructions of the HTRF KinEASE-TK kit (Cisbio), the compounds of the present disclosure were tested for their inhibitory effects on the activity of wild-type RET enzyme, mutant RET enzyme (RET-V804M, RET-V804L, and RET-M918T) and fusion-type RET enzyme (RET-CCDCl6). After pre-incubation of different RET enzymes and different concentrations of the test compounds at room temperature for 30 min, a substrate and adenosine triphosphate (ATP) were added to initiate the reaction. After incubation at room temperature for 40 min, TK antibody-cryptate and streptavidin-XL665 were added, and the test was performed after incubation at room temperature for 45 min. With the solvent group (DMSO) as the negative control and the buffer group (without RET enzyme) as the blank control, the relative inhibitory activity percentages (i.e., inhibition rates) of different concentrations of the compounds were computed as per the following formula:
as §1, §2, §3, §4

[3] = 10 nM (Table 2), read-out: Inhibition rate on RET-V804M

SMILES: Cc1cc(Nc2cc(C)[nH]n2)nc(-c2ccc(N3CC4CC(C3)N4Cc3ccc(-n4cc(Cl)c(C)n4)nc3)nc2)n1 [Compound 28, 2-(6-(6-((6-(4-chloro-3-methyl-1H-pyrazol-1-yl)pyridin-3-yl)methyl)-3,6-diazabicyclo[3.1.1]heptan-3-yl)pyridin-3-yl)-6-methyl-N-(5-methyl-1H-pyrazol-3-yl)pyrimidin-4-amine]
- inhibition at 0.3 µM [1]: 23%
- IC50 [2]: 10.4 ± 1.38 nM

SMILES: Cc1cc(Nc2cc(C)[nH]n2)nc(-c2ccc(N3CCC(Oc4cncc(F)c4)CC3)nc2)n1 [Compound 29, 2-(6-(4-((5-fluoropyridin-3-yl)oxy)piperidin-1-yl)pyridin-3-yl)-6-methyl-N-(5-methyl-1H-pyrazol-3-yl)pyrimidin-4-amine]
- inhibition at 0.3 µM [1]: 47%
- inhibition at 0.01 µM [2, 3]: 52%

SMILES: Cc1cc(Nc2cc(C)[nH]n2)nc(-c2ccc(N3CC4CC(C3)N4Cc3ccc(-n4nccc4OC4CC4)nc3)nc2)n1 [Compound 30, 2-(6-(6-((6-(5-cyclopropoxy-1H-pyrazol-1-yl)pyridin-3-yl)methyl)-3,6-diazabicyclo[3.1.1]heptan-3-yl)pyridin-3-yl)-6-methyl-N-(5-methyl-1H-pyrazol-3-yl)pyrimidin-4-amine]
- inhibition at 0.03 µM [1]: 51%
- inhibition at 0.01 µM [2, 3]: 88%

SMILES: Cc1cc(Nc2cc(C)[nH]n2)nc(-c2ccc(N3CC4CC(C3)N4Cc3ccc(-n4ccc(CF)n4)nc3)nc2)n1 [Compound 31, 2-(6-(6-((6-(3-(fluoromethyl)-1H-pyrazol-1-yl)pyridin-3-yl)methyl)-3,6-diazabicyclo[3.1.1]heptan-3-yl)pyridin-3-yl)-6-methyl-N-(5-methyl-1H-pyrazol-3-yl)pyrimidin-4-amine]
- inhibition at 0.03 µM [1]: 17%
- inhibition at 0.01 µM [2, 3]: 81%

SMILES: CCOc1ccc(CN2C3CC2CN(c2ccc(-c4nc(C)cc(Nc5cc(C)[nH]n5)n4)cn2)C3)cc1 [Compound 41, 2-(6-(6-(4-ethoxybenzyl)-3,6-diazabicyclo[3.1.1]heptan-3-yl)pyridin-3-yl)-6-methyl-N-(5-methyl-1H-pyrazol-3-yl)pyrimidin-4-amine]
- inhibition at 0.1 µM ([1]; 100 nM): 22%
- inhibition at 0.01 µM [2, 3]: 64%

SMILES: CCc1ccnn1-c1ccc(CN2C3CC2CN(c2ccc(-c4nc(C)cc(Nc5cc(C)[nH]n5)n4)cn2)C3)cn1 [Compound 46, 2-(6-(6-((6-(5-ethyl-1H-pyrazol-1-yl)pyridin-3-yl)methyl)-3,6-diazabicyclo[3.1.1]heptan-3-yl)pyridin-3-yl)-6-methyl-N-(5-methyl-1H-pyrazol-3-yl)pyrimidin-4-amine]
- inhibition at 0.3 µM [1]: 79%
- inhibition at 0.01 µM [2, 3]: 92%

SMILES: Cc1cnn(-c2ccc(CN3C4CC3CN(c3ccc(-c5nc(C)cc(Nc6cc(C)[nH]n6)n5)cn3)C4)cn2)c1 [Compound 62, 6-methyl-2-(6-(6-((6-(4-methyl-1H-pyrazol-1-yl)pyridin-3-yl)methyl)-3,6-diazabicyclo[3.1.1]heptan-3-yl)pyridin-3-yl)-N-(5-methyl-1H-pyrazol-3-yl)pyrimidin-4-amine]
- inhibition at 0.1 µM ([1]; 100 nM): 62%
- IC50 [2]: 4.53 ± 1.23 nM

SMILES: Cc1cc(Nc2cc(C)[nH]n2)nc(-c2ccc(N3CC4CC(C3)N4Cc3ccc(-n4ccc(F)n4)nc3)nc2)n1 [Compound 63, 2-(6-(6-((6-(3-fluoro-1H-pyrazol-1-yl)pyridin-3-yl)methyl)-3,6-diazabicyclo[3.1.1]heptan-3-yl)pyridin-3-yl)-6-methyl-N-(5-methyl-1H-pyrazol-3-yl)pyrimidin-4-amine]
- inhibition at 0.1 µM ([1]; 100 nM): 38%
- inhibition at 0.01 µM [2, 3]: 65%

SMILES: Cc1cc(Nc2cc(C)[nH]n2)nc(-c2ccc(N3CC4CC(C3)N4Cc3ccc(-n4cnc(F)c4)nc3)nc2)n1 [Compound 64, 2-(6-(6-((6-(4-fluoro-1H-imidazol-1-yl)pyridin-3-yl)methyl)-3,6-diazabicyclo[3.1.1]heptan-3-yl)pyridin-3-yl)-6-methyl-N-(5-methyl-1H-pyrazol-3-yl)pyrimidin-4-amine]
- inhibition at 0.1 µM ([1]; 100 nM): 38%
- inhibition at 0.01 µM [2, 3]: 79%

SMILES: Cc1cc(Nc2cc(C)[nH]n2)nc(-c2ccc(N3CC4CC(C3)N4Cc3ccc(F)cn3)nc2)n1 [Compound 70, 2-(6-(6-((5-fluoropyridin-2-yl)methyl)-3,6-diazabicyclo[3.1.1]heptan-3-yl)pyridin-3-yl)-6-methyl-N-(5-methyl-1H-pyrazol-3-yl)pyrimidin-4-amine]
- inhibition at 0.1 µM ([1]; 100 nM): 14%
- IC50 [2]: 41.4 ± 3.73 nM

SMILES: Cc1ccc(CN2C3CC2CN(c2ccc(-c4nc(C)cc(Nc5cc(C)[nH]n5)n4)cn2)C3)cc1 [Compound 80, 6-methyl-N-(5-methyl-1H-pyrazol-3-yl)-2-(6-(6-(4-methylbenzyl)-3,6-diazabicyclo[3.1.1]heptan-3-yl)pyridin-3-yl)pyrimidin-4-amine]
- inhibition at 0.1 µM [1]: -10%
- inhibition at 0.01 µM ([2]; read-out: Inhibition rate on RET-V804M): 51%

SMILES: Cc1cc(Nc2cc(C)[nH]n2)nc(-c2ccc(N3CC4CC(C3)N4Cc3ccc(Cl)cc3)nc2)n1 [Compound 82, 2-(6-(6-(4-chlorobenzyl)-3,6-diazabicyclo[3.1.1]heptan-3-yl)pyridin-3-yl)-6-methyl-N-(5-methyl-1H-pyrazol-3-yl)pyrimidin-4-amine]
- inhibition at 0.1 µM ([1]; 100 nM): 15%
- inhibition at 0.01 µM [2, 3]: 43%

SMILES: Cc1cc(Nc2cc(C)[nH]n2)nc(-c2ccc(N3CC4CC(C3)N4Cc3ccc(F)cc3)nc2)n1 [Compound 83, 2-(6-(6-(4-fluorobenzyl)-3,6-diazabicyclo[3.1.1]heptan-3-yl)pyridin-3-yl)-6-methyl-N-(5-methyl-1H-pyrazol-3-yl)pyrimidin-4-amine]
- inhibition at 0.1 µM ([1]; 100 nM): 18%
- inhibition at 0.01 µM [2, 3]: 56%

SMILES: Cc1cc(Nc2cc(C)[nH]n2)nc(-c2ccc(N3CC4CC(C3)N4Cc3ccc(-n4cccn4)cc3)nc2)n1 [Compound 86, 2-(6-(6-(4-(1H-pyrazol-1-yl)benzyl)-3,6-diazabicyclo[3.1.1]heptan-3-yl)pyridin-3-yl)-6-methyl-N-(5-methyl-1H-pyrazol-3-yl)pyrimidin-4-amine]
- inhibition at 0.1 µM ([1]; 100 nM): 52%
- inhibition at 0.01 µM [2, 3]: 64%

SMILES: Cc1cnn(-c2ccc(CN3C4CC3CN(c3ccc(-c5nc(C)cc(Nc6cc(C)[nH]n6)n5)cn3)C4)cc2)c1 [Compound 88, 6-methyl-2-(6-(6-(4-(4-methyl-1H-pyrazol-1-yl)benzyl)-3,6-diazabicyclo[3.1.1]heptan-3-yl)pyridin-3-yl)-N-(5-methyl-1H-pyrazol-3-yl)pyrimidin-4-amine]
- inhibition at 0.1 µM ([1]; 100 nM): 32%
- inhibition at 0.01 µM [2, 3]: 62%

SMILES: Cc1cc(Nc2cc(C)[nH]n2)nc(-c2ccc(N3CC4CC(C3)N4Cc3ccc(-n4ccc(F)n4)cc3)nc2)n1 [Compound 89, 2-(6-(6-(4-(3-fluoro-1H-pyrazol-1-yl)benzyl)-3,6-diazabicyclo[3.1.1]heptan-3-yl)pyridin-3-yl)-6-methyl-N-(5-methyl-1H-pyrazol-3-yl)pyrimidin-4-amine]
- inhibition at 0.1 µM ([1]; 100 nM): 16%
- inhibition at 0.01 µM [2, 3]: 70%

SMILES: Cc1cc(Nc2cc(C)[nH]n2)nc(-c2ccc(N3CC4CC(C3)N4Cc3ccc(-n4cc(F)cn4)cc3)nc2)n1 [Compound 91, 2-(6-(6-(4-(4-fluoro-1H-pyrazol-1-yl)benzyl)-3,6-diazabicyclo[3.1.1]heptan-3-yl)pyridin-3-yl)-6-methyl-N-(5-methyl-1H-pyrazol-3-yl)pyrimidin-4-amine]
- inhibition at 0.1 µM ([1]; 100 nM): 26%
- inhibition at 0.01 µM [2, 3]: 70%

SMILES: COc1ccc(F)c(CN2C3CC2CN(c2ccc(-c4nc(C)cc(Nc5cc(C)[nH]n5)n4)cn2)C3)c1 [Compound 96, 2-(6-(6-(2-fluoro-5-methoxybenzyl)-3,6-diazabicyclo[3.1.1]heptan-3-yl)pyridin-3-yl)-6-methyl-N-(5-methyl-1H-pyrazol-3-yl)pyrimidin-4-amine]
- inhibition at 0.1 µM ([1]; 100 nM): 4%
- inhibition at 0.1 µM ([2]; 100 nM (Table 2), read-out: Inhibition rate on RET-V804M): 84%

SMILES: Cc1ccc(OC2CCN(c3ccc(-c4nc(C)cc(Nc5cc(C)[nH]n5)n4)cn3)CC2)cn1 [Compound 119, 6-methyl-N-(5-methyl-1H-pyrazol-3-yl)-2-(6-(4-((6-methylpyridin-3-yl)oxy)piperidin-1-yl)pyridin-3-yl)pyrimidin-4-amine]
- inhibition at 0.1 µM ([1]; 100 nM): -7%
- IC50 [2]: 14.2 ± 1.27 nM

SMILES: Cc1cc(Nc2cc(C)[nH]n2)nc(-c2ccc(N3CC4CC(C3)N4Cc3ccc(-n4cc(C)c(C)n4)nc3)nc2)n1 [Compound 121, 2-(6-(6-((6-(3,4-dimethyl-1H-pyrazol-1-yl)pyridin-3-yl)methyl)-3,6-diazabicyclo[3.1.1]heptan-3-yl)pyridin-3-yl)-6-methyl-N-(5-methyl-1H-pyrazol-3-yl)pyrimidin-4-amine]
- inhibition at 0.1 µM ([1]; 100 nM): 37%
- IC50 [2]: 6.22 ± 1.39 nM
